Data taken from patent US20110053892A1, “Imidazo[4,5-d]Pyridazine Compounds For Treating Viral Infections” (priority 2009, published 2011).

System: HCV Genotype 1B replicon cells
Assay type: cell-based
Conditions: Table 3; cytotoxicity, cell titer glo
Source text: The genotype 1a replicon contains several adaptive mutations (NS4B Q31H, NS5A K68R, NS5A S232I), the luciferase gene and encodes for neomycin resistance. The genotype 1b replicon, also referred to as the ET replicon, is stably transfected with RNA transcripts harboring a I389luc-ubi-neo/NS3-3′/ET replicon with firefly luciferase-ubiquitin-neomycin phosphotransferase fusion protein and EMCV-IRES driven NS3-5B polyprotein containing the cell culture adaptive mutations (E1202G; T1280I; K1846T) See, Kreiger, et al., Journal of Virology 75:4614-4624 (2001). Both cell lines were grown in DMEM, supplemented with 10% fetal calf serum, 2 mM Glutamine, Penicillin (100 IU/mL)/Streptomycin (100 μg/mL), 1× nonessential amino acids, and 250 μg/mL G418 (“Geneticin”). They were all available through Life Technologies (Bethesda, Md.). The cells were plated at 0.5×10^4 cells/well in 384 well plates containing compounds. The final concentration of compounds ranged between 0.1 nM to 50 μM and the final DMSO concentration of 0.5%.
Luciferase activity was measured 48 hours later by adding a Steady glo (Promega, Madison, Wis.). Percent inhibition of replication data was plotted relative to no compound control. Under the same condition, cytotoxicity of the compounds was determined using cell titer glo (Promega, Madison, Wis.). EC50 values were determined from a 10 point dose response curve using 2-4 fold serial dilutions for each compound, which spans a concentration range of at least a 1000 fold. Replicon EC50 values, the concentration of compound required to inhibit 50% of the assay response, were calculated by curve fitting data to the Hill equation, using a non-linear least-squares curve-fitting program. The software tested the data for quality and rejected compounds with high and low activity before fitting the equation below.

SMILES | CC50
O=C(OCCOCCO)C(c1cc(-c2ccc(C3CC3)cc2C(F)(F)F)no1)n1cc2nc(-c3cccc(F)c3F)nc-2cn1 (stereo not shown) [Compound 179, 2-[(2-hydroxyethyl)oxy]ethyl {3-[4-cyclopropyl-2-(trifluoromethyl)phenyl]-5-isoxazolyl}[2-(2,3-difluorophenyl)-5H-imidazo[4,5-d]pyridazin-5-yl]acetate] | 50 µM
CCCOC(=O)C(c1cc(-c2ccc(C3CC3)cc2C(F)(F)F)no1)n1cc2nc(-c3cccc(F)c3F)nc-2cn1 (stereo not shown) [Compound 184, Propyl {3-[4-cyclopropyl-2-(trifluoromethyl)phenyl]-5-isoxazolyl}[2-(2,3-difluorophenyl)-5H-imidazo[4,5-d]pyridazin-5-yl]acetate] | 25 µM
COC(=O)C(c1cc(-c2ccc(C3CC3)cc2C(F)(F)F)no1)n1cc2nc(-c3cccc(F)c3F)nc-2cn1 (stereo not shown) [Compound 178, Methyl {3-[4-cyclopropyl-2-(trifluoromethyl)phenyl]-5-isoxazolyl}[2-(2,3-difluorophenyl)-5H-imidazo[4,5-d]pyridazin-5-yl]acetate] | 25 µM
O=C(OCCCO)C(c1cc(-c2ccc(C3CC3)cc2C(F)(F)F)no1)n1cc2nc(-c3cccc(F)c3F)nc-2cn1 (stereo not shown) [Compound 182, 3-Hydroxypropyl {3-[4-cyclopropyl-2-(trifluoromethyl)phenyl]-5-isoxazolyl}[2-(2,3-difluorophenyl)-5H-imidazo[4,5-d]pyridazin-5-yl]acetate] | > 50 µM
